Assays:
[1] = molecular target: alpha1-adrenoceptor; assay: [3H]-Prazosin binding assay (affinity for alpha1-adrenoceptors); settings: partially purified rat brain membranes; 0.2 nM [3H]-prazosin, 60 min, 25° C.
Procedure: The [^3 H]-prazosin binding assay was carried out according to the method described by Timmermans, P. B. M. W. M., Schoop, A. M. C., and Van Zwieten, P. A., Biochem. Pharmacol., 31, 899-905, (1982). The reaction mixture contained partially purified rat brain membranes (source of alpha1 -adrenoceptors), 0.2 nM [^3 H]-prazosin with or without potential displacer in Tris buffer. The mixture was incubated for 60 minutes at 25° C. and subsequently terminated by rapid filtration through glass fiber-filter. Receptor-bound [^3 H]-prazosin trapped in the filter was quantitated by scintillation counting. The inhibitory concentration (IC50) of potential displacer which gives 50% displacement of the total specifically bound [^3 H]-prazosin is presented as a measure of the affinity of such compound for the alpha1 -adrenoceptor.

[2] = molecular target: T1, Ca^2+ channel (Rattus norvegicus, UniProt P22002); assay: [3H]-Nitrendipine binding assay (affinity for calcium channels); settings: rat cardiac microsomes; 0.5 nM [3H]-nitrendipine, 60 min, 25° C.
T1 construct: rat cardiac microsomes (source of Ca^2+ channels); from tissue; host or cells: rat cardiac microsomes
T1 sequence (P22002 whole entry, other chains not shown): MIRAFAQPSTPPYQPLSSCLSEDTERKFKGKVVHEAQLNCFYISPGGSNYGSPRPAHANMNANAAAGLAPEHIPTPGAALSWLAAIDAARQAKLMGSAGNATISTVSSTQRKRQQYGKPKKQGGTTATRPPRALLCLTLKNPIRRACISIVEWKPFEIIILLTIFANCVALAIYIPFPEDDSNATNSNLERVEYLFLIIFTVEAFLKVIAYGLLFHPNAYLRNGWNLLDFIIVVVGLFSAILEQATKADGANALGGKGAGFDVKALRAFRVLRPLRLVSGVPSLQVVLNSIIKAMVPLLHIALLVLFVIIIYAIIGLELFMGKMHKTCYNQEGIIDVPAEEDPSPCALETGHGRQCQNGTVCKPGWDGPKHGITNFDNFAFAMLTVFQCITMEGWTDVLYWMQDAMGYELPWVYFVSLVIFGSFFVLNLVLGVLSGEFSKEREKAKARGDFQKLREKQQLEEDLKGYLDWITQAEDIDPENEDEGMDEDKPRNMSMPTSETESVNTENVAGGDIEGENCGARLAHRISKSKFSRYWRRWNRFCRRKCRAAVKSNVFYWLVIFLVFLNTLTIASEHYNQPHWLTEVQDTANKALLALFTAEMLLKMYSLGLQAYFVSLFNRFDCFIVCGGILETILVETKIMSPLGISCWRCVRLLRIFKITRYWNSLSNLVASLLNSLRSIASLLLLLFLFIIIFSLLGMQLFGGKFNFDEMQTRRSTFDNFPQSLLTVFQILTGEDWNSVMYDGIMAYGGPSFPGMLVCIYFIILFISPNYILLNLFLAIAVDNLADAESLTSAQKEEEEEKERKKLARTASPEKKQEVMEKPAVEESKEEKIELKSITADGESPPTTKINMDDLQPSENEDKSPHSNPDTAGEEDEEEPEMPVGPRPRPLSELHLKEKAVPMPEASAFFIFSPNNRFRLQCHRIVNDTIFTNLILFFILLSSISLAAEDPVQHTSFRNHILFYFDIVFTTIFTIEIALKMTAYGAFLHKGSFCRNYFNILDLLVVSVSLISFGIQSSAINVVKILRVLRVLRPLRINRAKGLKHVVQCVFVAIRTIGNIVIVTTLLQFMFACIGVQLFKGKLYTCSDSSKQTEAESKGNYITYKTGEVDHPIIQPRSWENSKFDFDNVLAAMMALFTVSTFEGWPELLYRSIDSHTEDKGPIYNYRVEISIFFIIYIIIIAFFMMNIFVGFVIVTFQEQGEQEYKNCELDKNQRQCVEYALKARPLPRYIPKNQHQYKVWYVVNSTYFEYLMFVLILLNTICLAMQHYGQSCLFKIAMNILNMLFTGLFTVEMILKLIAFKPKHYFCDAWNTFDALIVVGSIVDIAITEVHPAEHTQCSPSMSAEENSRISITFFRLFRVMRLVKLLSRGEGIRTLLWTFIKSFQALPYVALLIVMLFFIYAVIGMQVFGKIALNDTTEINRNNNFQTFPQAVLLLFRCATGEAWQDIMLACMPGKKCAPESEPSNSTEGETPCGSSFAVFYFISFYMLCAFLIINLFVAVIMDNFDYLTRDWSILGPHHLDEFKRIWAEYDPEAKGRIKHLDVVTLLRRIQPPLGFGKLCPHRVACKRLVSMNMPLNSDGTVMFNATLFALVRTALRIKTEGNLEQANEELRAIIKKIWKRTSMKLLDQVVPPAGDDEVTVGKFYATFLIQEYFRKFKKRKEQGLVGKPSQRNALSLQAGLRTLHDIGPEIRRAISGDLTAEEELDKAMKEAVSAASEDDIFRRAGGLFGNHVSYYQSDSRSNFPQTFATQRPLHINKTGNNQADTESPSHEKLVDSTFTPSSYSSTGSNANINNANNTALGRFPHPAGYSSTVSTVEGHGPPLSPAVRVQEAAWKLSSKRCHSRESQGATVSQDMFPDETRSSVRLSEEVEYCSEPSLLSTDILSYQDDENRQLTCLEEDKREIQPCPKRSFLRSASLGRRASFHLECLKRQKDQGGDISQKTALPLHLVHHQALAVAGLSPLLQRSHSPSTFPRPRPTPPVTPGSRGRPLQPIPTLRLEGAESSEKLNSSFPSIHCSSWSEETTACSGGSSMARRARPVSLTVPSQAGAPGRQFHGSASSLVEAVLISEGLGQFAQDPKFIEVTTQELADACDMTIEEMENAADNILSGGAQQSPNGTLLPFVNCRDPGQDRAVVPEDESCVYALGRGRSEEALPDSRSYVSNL
T1 sequence (P54290 25-944 partner limits assumed, other chains not shown): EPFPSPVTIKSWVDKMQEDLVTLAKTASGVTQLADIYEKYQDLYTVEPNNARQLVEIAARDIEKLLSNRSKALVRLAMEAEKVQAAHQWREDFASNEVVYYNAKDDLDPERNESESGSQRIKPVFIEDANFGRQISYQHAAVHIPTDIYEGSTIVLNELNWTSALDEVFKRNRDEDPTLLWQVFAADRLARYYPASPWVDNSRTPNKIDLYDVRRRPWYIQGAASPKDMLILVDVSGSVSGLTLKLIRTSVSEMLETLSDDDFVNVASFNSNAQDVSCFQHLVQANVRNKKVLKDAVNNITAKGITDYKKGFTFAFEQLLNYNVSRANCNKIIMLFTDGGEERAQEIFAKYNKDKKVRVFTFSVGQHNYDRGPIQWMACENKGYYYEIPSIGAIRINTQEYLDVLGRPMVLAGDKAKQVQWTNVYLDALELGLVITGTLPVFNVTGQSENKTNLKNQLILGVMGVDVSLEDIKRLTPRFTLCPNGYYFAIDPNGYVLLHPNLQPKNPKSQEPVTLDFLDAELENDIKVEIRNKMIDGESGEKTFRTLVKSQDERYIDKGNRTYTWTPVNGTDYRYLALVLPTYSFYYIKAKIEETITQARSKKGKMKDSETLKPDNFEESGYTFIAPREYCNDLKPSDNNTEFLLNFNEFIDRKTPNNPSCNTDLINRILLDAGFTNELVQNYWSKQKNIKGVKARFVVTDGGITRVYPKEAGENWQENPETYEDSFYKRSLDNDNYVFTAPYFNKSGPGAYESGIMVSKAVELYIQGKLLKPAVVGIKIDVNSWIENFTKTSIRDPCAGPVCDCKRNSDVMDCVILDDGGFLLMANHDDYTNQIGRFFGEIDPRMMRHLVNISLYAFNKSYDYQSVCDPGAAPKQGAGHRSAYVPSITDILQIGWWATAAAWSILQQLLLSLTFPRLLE
T1 sequence (P54290 945-1091 partner limits assumed, other chains not shown): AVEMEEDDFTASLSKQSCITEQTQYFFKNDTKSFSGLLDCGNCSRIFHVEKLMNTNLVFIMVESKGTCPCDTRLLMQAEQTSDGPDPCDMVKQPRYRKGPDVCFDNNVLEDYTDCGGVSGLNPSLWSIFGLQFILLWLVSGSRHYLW
Procedure: [^3 H]-Nitrendipine binding assay was carried out according to the method described by G. T. Bolger, et al., Biochem. Biophys. Res. Comm., 104, 1604-1609, (1982). The reaction mixture contained rat cardiac microsomes (source of Ca^2+ channels), 0.5 nM [^3 H]-nitrendipine with or without potential displacer in Tris buffer. The mixture was incubated for 60 minutes at 25° C. and subsequently terminated by rapid filtration through a glass fiber-filter. Membrane-bound [^3 H]-nitrendipine trapped in the filter was quantitated by scintillation counting. The inhibitory concentration (IC50) of potential displacer which gives 50% displacement of the total specifically bound [^3 H]-nitrendipine is presented as a measure of the affinity of such compound for the Ca^2+ channel.

[3] = test system: guinea pig left atria; assay: Positive inotropic effect in guinea pig left atria; settings: Cavia porcellus; for EC50: concentration that increases developed tension (DT) by 50% above the control DT, left atria paced at 2 Hz, 37° C.; for Emax: ratio of the maximum effect of the test compound to that of Bay K8644, read-out: Intrinsic Activity
Procedure: Guinea pigs are killed by cervical dislocation. The left atria are removed and mounted at 1 gm resting tension in tissue baths containing oxygenated Krebs bicarbonate solution which is kept at 37° C. The left atria are electrically paced at 2 Hz with square wave pulses of 1 msec duration. The voltage is set at 1.5×threshold level.
After a one hour equilibration period, control values for developed tension (DT, gm) are recorded. Test compounds are then added to the baths, in a cumulative manner to a maximum concentration of 10^-4, to obtain a concentration-response curve. Treatment values of DT are obtained after the drug effect has reached a plateau and the exposure time for each concentration is 5-8 minutes. Percent change of the treatment value from the control value is calculated at each concentration of the test compound.

With `CC1=C(C(=O)OCCN2CCN(c3ncccn3)CC2)C(c2ccoc2)C([N+](=O)[O-])=C(C)N1` (centres unmarked) [Example 56, 4-(3-Furanyl)-1,4-dihydro-2,6-dimethyl-5-nitro-3-pyridinecarboxylic acid, {2-[4-(2-pyrimidinyl)-1-piperazinyl]ethyl} ester] the IC50 [1] was 5.2 µM, the IC50 [2] was 4.3 µM and the EC50 [3] was 0.43 µM. The Emax [3] was 171%.

`COc1ccccc1N1CCN(CCCCOC(=O)C2=C(C)NC(C)=C([N+](=O)[O-])C2c2cccnc2)CC1` (centres unmarked) [Example 52] gave an IC50 [1] of 0.052 µM, an IC50 [2] of 3.9 µM and an Emax [3] of 35%.

`COc1ccccc1N1CCN(CCCCOC(=O)C2=C(C)NC(C)=C([N+](=O)[O-])C2c2cccn2C)CC1` (centres unmarked) [Example 57, 1,4-Dihydro-2,6-dimethyl-4-(1-methyl-1H-pyrrol-2-yl)-5-nitro-3-pyridinecarboxylic acid, {4-[4-(2-methoxyphenyl)1-piperazinyl]butyl} ester] was tested, and the IC50 [1] was 0.033 µM, the IC50 [2] was 1.3 µM and the EC50 [3] was 2.3 µM. It also gave an Emax [3] of 110%.

`CC1=C(C(=O)OCCN2CCN(c3ncccn3)CC2)C(c2cccc3nonc23)C([N+](=O)[O-])=C(C)N1` (centres unmarked) [Example 76] showed an IC50 [1] of 17 µM, an IC50 [2] of 0.085 µM and an EC50 [3] of 0.056 µM. The Emax [3] was 156%.

Work on `CC1=C(C(=O)OCCCCN2CCN(c3ncccn3)CC2)C(c2cccc3nonc23)C([N+](=O)[O-])=C(C)N1` (centres unmarked) [Example 54] yielded an IC50 [1] of 0.82 µM, an IC50 [2] of 0.29 µM and an EC50 [3] of over 100 µM. It also gave an Emax [3] of 21%.

Work on `CC1=C(C(=O)OCCN2CCN(c3ncccn3)CC2)C(c2cccs2)C([N+](=O)[O-])=C(C)N1` (centres unmarked) [Example 73] yielded an IC50 [1] of 4.9 µM, an IC50 [2] of 2.4 µM and an EC50 [3] of 0.98 µM. For the same molecule, the Emax [3] was 84%.

In the case of `CCCOc1cc(N2CCN(CCCCCOc3ccccc3C3C(C(=O)OC)=C(C)NC(C)=C3[N+](=O)[O-])CC2)ncn1` (centres unmarked) [Example 11], the IC50 [1] is reported as 5.3 µM, the IC50 [2] is reported as 0.36 µM and the EC50 [3] is reported as 43 µM. The Emax [3] was 68%.

For `CC1=C(C(=O)OCCN2CCN(c3ncccn3)CC2)C(c2cccn2C)C([N+](=O)[O-])=C(C)N1` (centres unmarked) [Example 78, 1,4-Dihydro-2,6-dimethyl-4-(1-methyl-1H-pyrrol-2-yl)-5-nitro-3-pyridinecarboxylic acid, {2-[4-(2-pyrimidinyl)-1-piperazinyl]ethyl} ester], the IC50 [1] was 3.3 µM, the IC50 [2] was 1.7 µM and the EC50 [3] was 0.58 µM. For the same molecule, the Emax [3] was 231%.

`CC1=C(C(=O)OCCCCN2CCN(c3ncccn3)CC2)C(c2ccsc2)C([N+](=O)[O-])=C(C)N1` (centres unmarked) [Example 72] showed an IC50 [1] of 1 µM, an IC50 [2] of 1.6 µM and an EC50 [3] of 12 µM. The Emax [3] was 70%.

Work on `CC1=C(C(=O)OCCCCN2CCN(c3ncccn3)CC2)C(c2cccn2C)C([N+](=O)[O-])=C(C)N1` (centres unmarked) [Example 58, 1,4-Dihydro-2,6-dimethyl-4-(1-methyl-1H-pyrrol-2-yl)-5-nitro-3-pyridinecarboxylic acid, {4-[4-(2-pyrimidinyl)-1-piperazinyl]butyl} ester] yielded an IC50 [1] of 0.75 µM, an IC50 [2] of 1.8 µM and an EC50 [3] of 0.84 µM. It also gave an Emax [3] of 195%.

Molecule `COc1ccccc1N1CCN(CCCCOC(=O)C2=C(C)NC(C)=C([N+](=O)[O-])C2c2cccc3nonc23)CC1` (centres unmarked) [Example 51, 4-(4-Benzofurazanyl)-1,4-dihydro-2,6-dimethyl-5-nitro-3-pyridinecarboxylicacid, {4-[4-(2-methoxyphenyl)-1-piperazinyl]butyl} ester] has an IC50 [1] of 0.12 µM, an IC50 [2] of 0.11 µM and an EC50 [3] of 11 µM. For the same molecule, the Emax [3] was 175%.

Work on `COC(=O)C1=C(C)NC(C)=C([N+](=O)[O-])C1c1ccccc1OCCCCCN1CCN(c2ccc(OC(C)C)nn2)CC1` (centres unmarked) [Example 8] yielded an IC50 [1] of 15 µM, an IC50 [2] of 0.58 µM and an EC50 [3] of 15 µM. It also gave an Emax [3] of 113%.

For `COc1ccccc1N1CCN(CCCCOC(=O)C2=C(C)NC(C)=C([N+](=O)[O-])C2c2ccco2)CC1` (centres unmarked) [Example 69], the IC50 [1] was 0.035 µM, the IC50 [2] was 2 µM and the EC50 [3] was 62 µM. The Emax [3] was 60%.

Work on `COC(=O)C1=C(C)NC(C)=C([N+](=O)[O-])C1c1ccccc1OCCCCCN1CCN(c2cnccn2)CC1` (centres unmarked) [Example 10] yielded an IC50 [1] of 7.2 µM, an IC50 [2] of 1.2 µM and an EC50 [3] of 2.8 µM. For the same molecule, the Emax [3] was 55%.

Molecule `CC1=C(C(=O)OCCCCN2CCN(c3ncccn3)CC2)C(c2ccco2)C([N+](=O)[O-])=C(C)N1` (centres unmarked) [Example 70, 4-(2-Furanyl)-1,4-dihydro-2,6-dimethyl-5-nitro-3-pyridinecarboxylic acid, {4-[4-(2-pyrimidinyl)-1-piperazinyl]butyl} ester] has an IC50 [1] of 0.84 µM, an IC50 [2] of 2 µM and an EC50 [3] of 5 µM. The Emax [3] was 132%.

Work on `COC(=O)C1=C(C)NC(C)=C([N+](=O)[O-])C1c1ccoc1CCCCCN1CCN(C(=O)c2ccco2)CC1` (centres unmarked) [Example 2] yielded an IC50 [1] of 1.9 µM, an IC50 [2] of 1.5 µM and an EC50 [3] of 96 µM. The Emax [3] was 144%.

`COC(=O)C1=C(C)NC(C)=C([N+](=O)[O-])C1c1ccccc1OCCCCCN1CCN(C(=O)C2COc3ccccc3O2)CC1` (centres unmarked) [Example 9] gave an IC50 [1] of 5.2 µM, an IC50 [2] of 0.95 µM and an EC50 [3] of 53 µM. For the same molecule, the Emax [3] was 62%.

With `CC1=C(C(=O)OCCCCN2CCN(c3ncccn3)CC2)C(c2cccs2)C([N+](=O)[O-])=C(C)N1` (centres unmarked) [Example 64] the IC50 [1] was 1.2 µM, the IC50 [2] was 1.2 µM and the EC50 [3] was 3.4 µM. It also gave an Emax [3] of 76%.

`COC(=O)C1=C(C)NC(C)=C([N+](=O)[O-])C1c1ccccc1OCCCCCN1CCN(C(=O)c2ccco2)CC1` (centres unmarked) [Example 5] gave an IC50 [1] of 2.2 µM, an IC50 [2] of 0.68 µM and an EC50 [3] of 3 µM. It also gave an Emax [3] of 269%.

Work on `COC(=O)C1=C(C)NC(C)=C([N+](=O)[O-])C1c1ccccc1OCCCCCN1CCN(c2ccc(Cl)nn2)CC1` (centres unmarked) [Example 7] yielded an IC50 [1] of 1.9 µM, an IC50 [2] of 0.65 µM and an EC50 [3] of 12 µM. It also gave an Emax [3] of 149%.

With `COC(=O)C1=C(C)NC(C)=C([N+](=O)[O-])C1c1ccoc1CCCCCN1CCN(c2ccccc2OC)CC1` (centres unmarked) [Example 1, 1,4-Dihydro-4-(2-{5-[4-(2-methoxyphenyl)-1-piperazinyl]pentyl}-3-furanyl)-2,6-dimethyl-5-nitro-3-pyridinecarboxylic acid, methyl ester] the IC50 [1] was 0.13 µM, the IC50 [2] was 0.6 µM and the EC50 [3] was 5 µM. For the same molecule, the Emax [3] was 188%.

`CC1=C(C(=O)OCCCCN2CCN(c3ncccn3)CC2)C(c2cccnc2)C([N+](=O)[O-])=C(C)N1` (centres unmarked) [Example 53, 1,4-Dihydro-2,6-dimethyl-5-nitro-4-(3-pyridinyl)-3-pyridinecarboxylic acid: {4-[4-(2-pyrimidinyl)-1-piperazinyl]butyl} ester] showed an IC50 [1] of 0.4 µM, an IC50 [2] of 4.4 µM and an EC50 [3] of 25 µM. The Emax [3] was 189%.

Molecule `CC1=C(C(=O)OCCN2CCN(c3ncccn3)CC2)C(c2ccco2)C([N+](=O)[O-])=C(C)N1` (centres unmarked) [Example 60] has an IC50 [1] of 5.9 µM, an IC50 [2] of 2 µM and an EC50 [3] of 1.6 µM. For the same molecule, the Emax [3] was 140%.

For `COc1ccccc1N1CCN(CCOC(=O)C2=C(C)NC(C)=C([N+](=O)[O-])C2c2cccc3nonc23)CC1` (centres unmarked) [Example 75], the IC50 [1] was 0.47 µM, the IC50 [2] was 0.085 µM and the EC50 [3] was 0.4 µM. It also gave an Emax [3] of 82%.

`CC1=C(C(=O)OCCN2CCN(c3ncccn3)CC2)C(c2ccsc2)C([N+](=O)[O-])=C(C)N1` (centres unmarked) [Example 66, 1,4-Dihydro-2,6-dimethyl-5-nitro-4-(3-thienyl)-3-pyridinecarboxylic acid, {2-[4-(2-pyrimidinyl)-1-piperazinyl]ethyl} ester] showed an IC50 [1] of 6 µM, an IC50 [2] of 0.95 µM and an EC50 [3] of 0.85 µM. It also gave an Emax [3] of 210%.

`COc1ccccc1N1CCN(CCOC(=O)C2=C(C)NC(C)=C([N+](=O)[O-])C2c2ccsc2)CC1` (centres unmarked) [Example 65, 1,4-Dihydro-2,6-dimethyl-5-nitro-4-(3-thienyl)-3-pyridinecarboxylic acid, {2-[4-(2-methoxyphenyl)-1-piperazinyl]ethyl} ester] was tested, and the IC50 [1] was 0.18 µM, the IC50 [2] was 0.86 µM and the EC50 [3] was 1 µM. For the same molecule, the Emax [3] was 225%.

Work on `COc1ccccc1N1CCN(CCCCOC(=O)C2=C(C)NC(C)=C([N+](=O)[O-])C2c2ccsc2)CC1` (centres unmarked) [Example 71] yielded an IC50 [1] of 0.078 µM, an IC50 [2] of 1.7 µM and an Emax [3] of 40%.

`CC1=C(C(=O)OCCN2CCN(c3ncccn3)CC2)C(c2cccnc2)C([N+](=O)[O-])=C(C)N1` (centres unmarked) [Example 62] showed an IC50 [1] of over 1 µM, an IC50 [2] of 3.7 µM and an EC50 [3] of over 100 µM. The Emax [3] was 48%.

Source: patent US5580871A, “4-Heteroaryl- 1,4-dihydropyridine compounds with calcium agonist and alpha1 -antagonist activity” (The Dupont Merck Pharmaceutical Company, priority 1995, dated 1996)
